Tested on: SGC-7901 cells
Test: Western blot analysis of apoptosis-related proteins
Type: cell-based, human
Details: 4.0 µM 1, 15.0 µM 2, 15.0 µM 3, 24 h
Method: The SGC-7901 cancer cells were seeded on 6-well plates at a density of 5 × 10^5 cells per well. Following incubation for 24 h, the cells were treated with 1–3 for 24 h. Next, total proteins were extracted from the cells after incubation in lysis radioimmunoprecipitation assay (RIPA) buffer for 30 min on ice. After centrifugation (13,000× g, 4 °C, 20 min) of the cell suspension, the supernatants were obtained. Protein concentrations were determined using a BCA (bicinchoninic acid) protein assay kit. Equal amounts of denatured proteins were fractionated by electrophoresis on SDS-polyacrylamide gel at 50 V for 3 h. A pre-stained color protein marker was used as the internal reference. The gels were then segmented, transferred to polyvinylidene fluoride (PVDF) membranes (Millipore, Burlington, MA, USA) and then blocked with 5% non-fat milk in TBST buffer (150 mM NaCl, 20 mM Tris-HCl, 0.05% Tween 20, pH = 8.0) for 2 h. […] Further hybridization with the secondary antibodies (diluted 1:5000) conjugated with horseradish peroxidase was performed after washing the membranes three times in TBST buffer with shaking. Each protein was visualized using an enhanced chemiluminescence (ECL) detection kit, in accordance with the manufacturer’s instructions. Finally, the blot images were photographed by a computerized imaging system.

SMILES | Expression level of Bax | Expression level of Bcl-2 | Expression level of Bcl-xL | Expression level of phosphorylated p53 (P-p53)
F[P-](F)(F)(F)(F)F.O=[N+]([O-])c1cc2ccc[n+]3c2c2c1ccc[n+]2[Ir-5]312([c]3ccccc3-c3cccc[n+]31)[c]1ccccc1-c1cccc[n+]12 [Complex 1, [Ir(Hppy)2(NP)]PF6] | increased | dramatically decreased | dramatically decreased | dramatically decreased
F[P-](F)(F)(F)(F)F.Nc1c([N+](=O)[O-])c2cccnc2c2ncccc12.[Ir+3].[c-]1ccccc1-c1ccccn1.[c-]1ccccc1-c1ccccn1 [Complex 2, [Ir(Hppy)2(NAP)]PF6] | increased | dramatically decreased | dramatically decreased | dramatically decreased
F[P-](F)(F)(F)(F)F.Nc1c(N)c2cccnc2c2ncccc12.[Ir+3].[c-]1ccccc1-c1ccccn1.[c-]1ccccc1-c1ccccn1 [Complex 3, [Ir(Hppy)2(DAP)]PF6] | increased | dramatically decreased | dramatically decreased | dramatically decreased
